Measurements taken from patent US6355671B1, “SULFONATED DERIVATIVES OF CYCLIC PHENOL SULFIDES, PROCESS FOR THE PREPARATION THEREOF, […] […] […] PHENOL SULFIDES, METHODS FOR […] RECOVERY […], AND DRUG COMPOSITIONS CONTAINING THE SULFIDES” (Cosmo Research Institute, priority 1997, dated 2002).

How the values were obtained:
[1] = tested on: MOLT-4 (T cell leukemia cell); conditions: MOLT-4 cell density after 3 days of culture, read from FIG. 2
Description: In order to evaluate cytotoxicity of the cyclic phenol sulfide (III) in a human cell line, MOLT-4 (T cell leukemia cell, Riken Gene Bank accession number RCB 0206), was used in the test. The cyclic phenol sulfide (III) was dissolved in a medium (RPMI-1640 containing 10% FCS (fetal calf serum), kanamycin (5,000 U/ml) and streptomycin (5 mg/ml)) to a concentration of 2.5 mM, and the solution was made into 2-fold serial dilutions to prepare cyclic phenol sulfide (III)-containing medium samples having 11 steps of concentration. Each of the cyclic phenol sulfide (III)-containing medium samples was dispensed into wells of a 6-well plate in 2.5 ml, a MOLT-4 culture broth of 2×10^5 cells/ml was dispensed into the resulting wells in 2.5 ml, the cells were cultured at 37° C. for 3 days in a moist incubator containing 5% CO2, and then the cell density was measured using Celltac MEK-5254 (manufactured by NIHON KOHDEN).

Description for HIV-1: The cyclic phenol sulfide (III) was dissolved in the medium used in Example 8 to a concentration of 2.5 mM, and the solution was made into 2-fold serial dilutions to prepare cyclic phenol sulfide (III)-containing medium samples having 11 steps of concentration. Each of the cyclic phenol sulfide (III)-containing medium samples was dispensed into wells of a 6-well plate in 2.5 ml, a culture broth containing 1.64×10^5 cells/ml of MOLT-4 or 1.82×10^4 cells/ml of HIV-1-infected MOLT-4 was dispensed into the resulting wells in 2.5 ml, the cells were cultured at 37° C. for 3 days in a moist incubator containing 5% CO2, the resulting cell density was measured using Celltac MEK-5254 (manufactured by NIHON KOHDEN), and then a portion of the medium containing 10^6 cells was taken out to purify DNA. The number of HIV-1 DNA contained in 500 ng of the cell DNA was determined by competitive nested PCR.
Firstly, 500 ng of each cell DNA sample was mixed with 1 μM of the primers JA9 and JA12, 0.2 mM dNTP, 50 mM KCl, 10 mM Tris-HCl (pH 8.3), 4 mM MgCl2, 5,000 copies of the competitor and 2 units of Taq DNA polymerase manufactured by Roche), and the total volume was adjusted to 100 μl with Milli-Q water. […]

With `O=S(=O)([O-])c1cc2c(O)c(c1)Sc1cc(S(=O)(=O)[O-])cc(c1O)Sc1cc(S(=O)(=O)[O-])cc(c1O)Sc1cc(S(=O)(=O)[O-])cc(c1O)S2.[Na+].[Na+].[Na+].[Na+]` [cyclic phenol sulfide (III), sodium salt of 25,26,27,28-tetrahydroxy-2,8,14,20-tetrathia[19.3.1.1^3,71^9,131^15,19]octacosa-1(25),3,5,7(28),9,11,13(27),15,17,19(26),21,23-dodecaene-5,11,17,23-tetrasulfonic acid] as the compound, how does the CC50 [1] read?
Its CC50 is 700 µM.

And the IC50 (HIV-1; HIV-1 DNA concentration after 3 days of infection, MOLT-4 / HIV-1-infected MOLT-4 co-culture, read from FIG. 2)?
Its IC50 is 40 µM.

And the “therapeutic ratio (=CC50/IC50)” value (HIV-1; from Example 8 and Example 9)?
Its value is 18.
